Laboratory results from patent US11753407B2, “Compounds for treating spinal muscular atrophy” (PTC Therapeutics, Inc., priority 2012, dated 2023).

Assays:
[1] = system: Smn protein in SMA patient fibroblast cells (GM03813); experiment: Smn protein assay in cultured cells (SMN HTRF); assay type: cell-based, human; conditions: SMA patient fibroblast cells, 48 hours; for EC1.5x for Smn protein expression: 7-point concentration curve, SMN HTRF, concentration producing 1.5 times Smn protein vs DMSO vehicle control; for maximum fold (Fold) increase of Smn protein: 7-point concentration data, fold relative to vehicle control
Outline: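 Cells were cultured 72 h, seeded at 5,000/well and dosed with seven concentrations (3.16-fold apart) for 48 h. HTRF on lysates, read at 665 and 620 nm, gave blank-corrected ΔF values relative to DMSO. Potency is reported as EC1.5×, efficacy as maximal fold Smn increase.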

[2] = system: SMN2 minigene mRNA (SMN2-A minigene) in HEK293H cells; experiment: SMN2 minigene mRNA splicing RT-qPCR assay in cultured cells; assay type: cell-based, human; conditions: Homo sapiens, HEK293-H; concentration increasing full length SMN2 mRNA 1.5-fold relative to vehicle-treated cells; HEK293H cells with SMN2-A minigene, 24 hours, 7-point concentration data; read-out: EC1.5x for production of full length SMN2 mRNA
Outline: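 EC1.5× values derive from a 24 h treatment of SMN2-A minigene HEK293H cells and GAPDH-normalized RT-qPCR of exon 7-included minigene mRNA relative to vehicle-treated cells.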

SMILES | EC1.5x for Smn protein expression [1] | maximum fold (Fold) increase of Smn protein [1] | melting point [°C] | EC (1.5-fold increase) [2] [µM]
CCc1nc(C)cn2nc(-c3cc(=O)n4cc(C5CCN(C6COC(C)(C)OC6)CC5)ccc4n3)cc12 [Compound 693, 7-[1-(2,2-dimethyl-1,3-dioxan-5-yl)piperidin-4-yl]-2-(4-ethyl-6-methylpyrazolo[1,5-a]pyrazin-2-yl)-4H-pyrido[1,2-a]pyrimidin-4-one] | ** (an EC1.5× between >1 μM and ≤3 μM is indicated by two stars (**)) | **** (a fold increase between >1.5 and ≤1.65 is indicated by four stars (****)) | 236 to 238 | 1 to 3
Cc1cn2cc(-c3cc(=O)n4cc(N5C[C@@H](C)N[C@@H](C)C5)ccc4n3)cc2c(C)n1 [Compound 695, 7-[(3R,5S)-3,5-dimethylpiperazin-1-yl]-2-(1,3-dimethylpyrrolo[1,2-a]pyrazin-7-yl)-4H-pyrido[1,2-a]pyrimidin-4-one] | **** (an EC1.5x≤0.3 μM is indicated by four stars (****)) | ***** (a fold increase >1.65 is indicated by five stars (*****)) | 254 to 256 | < 0.1
CCc1cc(-c2cc(=O)n3cc(C4CCNCC4)ccc3n2)cn2cc(C)nc12 [Compound 696, 2-(8-ethyl-2-methylimidazo[1,2-a]pyridin-6-yl)-7-(piperidin-4-yl)-4H-pyrido[1,2-a]pyrimidin-4-one] | **** (an EC1.5x≤0.3 μM is indicated by four stars (****)) | ***** (a fold increase >1.65 is indicated by five stars (*****)) | 221 to 224 | < 0.1
CCc1cc(-c2cc(=O)n3cc(C4CCN(C)CC4)ccc3n2)cn2cc(C)nc12 [Compound 697, 2-(8-ethyl-2-methylimidazo[1,2-a]pyridin-6-yl)-7-(1-methylpiperidin-4-yl)-4H-pyrido[1,2-a]pyrimidin-4-one] | **** (an EC1.5x≤0.3 μM is indicated by four stars (****)) | ***** (a fold increase >1.65 is indicated by five stars (*****)) | 214 to 218 | < 0.1
CCc1cc(-c2cc(=O)n3cc(C4CCN(CC)CC4)ccc3n2)cn2cc(C)nc12 [Compound 698, 2-(8-ethyl-2-methylimidazo[1,2-a]pyridin-6-yl)-7-(1-ethylpiperidin-4-yl)-4H-pyrido[1,2-a]pyrimidin-4-one] | **** (an EC1.5x≤0.3 μM is indicated by four stars (****)) | ***** (a fold increase >1.65 is indicated by five stars (*****)) | 196 to 200 | < 0.1
CCc1cc(-c2cc(=O)n3cc(C4CCN(CCO)CC4)ccc3n2)cn2cc(C)nc12 [Compound 699, 2-(8-ethyl-2-methylimidazo[1,2-a]pyridin-6-yl)-7-[1-(2-hydroxyethyl)piperidin-4-yl]-4H-pyrido[1,2-a]pyrimidin-4-one] | **** (an EC1.5x≤0.3 μM is indicated by four stars (****)) | ***** (a fold increase >1.65 is indicated by five stars (*****)) | 244 to 247 | < 0.1
CCc1cc(-c2cc(=O)n3cc(N4CCN(C)[C@H](C)C4)ccc3n2)cn2cc(C)nc12 [Compound 700, 7-[(3R)-3,4-dimethylpiperazin-1-yl]-2-(8-ethyl-2-methylimidazo[1,2-a]pyridin-6-yl)-4H-pyrido[1,2-a]pyrimidin-4-one] | **** (an EC1.5x≤0.3 μM is indicated by four stars (****)) | ***** (a fold increase >1.65 is indicated by five stars (*****)) | 217 to 220 | < 0.1
CCc1cc(-c2cc(=O)n3cc(N4CCN(CC)[C@H](C)C4)ccc3n2)cn2cc(C)nc12 [Compound 701, 2-(8-ethyl-2-methylimidazo[1,2-a]pyridin-6-yl)-7-[(3R)-4-ethyl-3-methylpiperazin-1-yl]-4H-pyrido[1,2-a]pyrimidin-4-one] | **** (an EC1.5x≤0.3 μM is indicated by four stars (****)) | ***** (a fold increase >1.65 is indicated by five stars (*****)) | 179 to 182 | < 0.1
Cc1cn2nc(-c3cc(=O)n4cc(C5CCN(CCO)CC5)cc(C)c4n3)cc2c(C)n1 [Compound 703, 2-(4,6-dimethylpyrazolo[1,5-a]pyrazin-2-yl)-7-[1-(2-hydroxyethyl)piperidin-4-yl]-9-methyl-4H-pyrido[1,2-a]pyrimidin-4-one] | **** (an EC1.5x≤0.3 μM is indicated by four stars (****)) | ***** (a fold increase >1.65 is indicated by five stars (*****)) | 224 to 233 | < 0.1
Cc1cn2nc(-c3cc(=O)n4cc(C5CCN(C6CCC6)CC5)cc(C)c4n3)cc2c(C)n1 [Compound 704, 7-(1-cyclobutylpiperidin-4-yl)-2-(4,6-dimethylpyrazolo[1,5-a]pyrazin-2-yl)-9-methyl-4H-pyrido[1,2-a]pyrimidin-4-one] | **** (an EC1.5x≤0.3 μM is indicated by four stars (****)) | **** (a fold increase between >1.5 and ≤1.65 is indicated by four stars (****)) | 228 to 237 | 0.1 to 0.3
Cc1cc(C2CCN(C)CC2)cn2c(=O)cc(-c3ccc4nn(C)cc4c3)nc12 [Compound 705, 9-methyl-2-(2-methyl-2H-indazol-5-yl)-7-(1-methylpiperidin-4-yl)-4H-pyrido[1,2-a]pyrimidin-4-one] | **** (an EC1.5x≤0.3 μM is indicated by four stars (****)) | ***** (a fold increase >1.65 is indicated by five stars (*****)) | 222 to 227 | < 0.1
Cc1cn2nc(-c3cc(=O)n4cc(N5CCC(C)(N(C)C)CC5)ccc4n3)cc2c(C)n1 [Compound 706, 7-[4-(dimethylamino)-4-methylpiperidin-1-yl]-2-(4,6-dimethylpyrazolo[1,5-a]pyrazin-2-yl)-4H-pyrido[1,2-a]pyrimidin-4-one] | **** (an EC1.5x≤0.3 μM is indicated by four stars (****)) | ***** (a fold increase >1.65 is indicated by five stars (*****)) | 237 to 239 | < 0.1
CCNC1(C)CCN(c2ccc3nc(-c4cc5c(C)nc(C)cn5n4)cc(=O)n3c2)CC1 [Compound 707, 2-(4,6-dimethylpyrazolo[1,5-a]pyrazin-2-yl)-7-[4-(ethylamino)-4-methylpiperidin-1-yl]-4H-pyrido[1,2-a]pyrimidin-4-one] | **** (an EC1.5x≤0.3 μM is indicated by four stars (****)) | ***** (a fold increase >1.65 is indicated by five stars (*****)) | 187 to 189 | < 0.1
